Among the data in PubChem BioAssay (NCI) are TGI values, retold here.

Common to all, as to test: NCI anticancer screen, dose series, 48 h
Test [1] deals with NCI-H460 lung.
Test [2] has as its system OVCAR-5 ovarian.
Test [3] deals with RXF 393 renal.
The subject of test [4] is HCT-15 colon.
Test [5] concerns MCF7 breast.
The test system of test [6] is LOX IMVI melanoma.
Test [7] concerns CCRF-CEM leukemia.
Test [8] deals with OVCAR-4 ovarian.
The subject of test [9] is MDA-N.
In test [10] the test system is M14 melanoma.

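Protocol summary: plate cells (96-well), add compound at 5 concentrations, incubate 48 h, interpolate endpoints linearly. TGI: total growth inhibition.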

Regarding `COc1ccc2c(c1)c(=O)c1c(NCCCN(C)CCCNc3ccc4c(=O)n(CCN(C)C)c(=O)n5c6ccc(OC)cc6c(=O)c3c45)ccc3c(=O)n(CCN(C)C)c(=O)n2c31`, the TGI is 0.209 µM in [1]; 3.63 µM in [2]; 0.602 µM in test [3]; 0.617 µM in test [4]; 1.12 µM in test [5]; 0.161 µM in test [6]. Moreover, the TGI is 0.049 µM in test [7], less than 0.049 µM in [8], 1.49 µM in test [9] and 2.58 µM in [10].

In the case of `CCN(CC)c1ccc(/C=c2\nc(-c3ccccc3)n3c2nc2ccccc23)cc1`, the TGI was greater than 100 µM in test [1]; greater than 100 µM in [2]; 61 µM in test [3]; greater than 100 µM in test [4]; greater than 100 µM in test [5]; 26.4 µM in [6]. Moreover, the TGI in test [7] was 11.7 µM; in test [8], 32.2 µM; in [9] it was 24.6 µM; in test [10], 37.9 µM.

Turning to `CC1(CCc2ccccc2)CC1(Br)Br` (configuration not stated), the TGI in test [1] is greater than 100 µM; in test [2] it was greater than 100 µM; in test [3] it was 41.2 µM; in [4], greater than 100 µM; in test [5], greater than 100 µM; in test [6], 37.4 µM. Further, the TGI in [7] is 67.7 µM; in [8] it was greater than 100 µM; in [9], greater than 100 µM; in test [10], greater than 100 µM.

Consider `COC(=O)c1ccc(CCC2=CC(=O)C(Br)=CC2=O)cc1`, for which the TGI was determined as 34.5 µM in [1]; 33.6 µM in test [2]; 32.3 µM in [3]; 27.6 µM in [4]; 34.9 µM in [5]; 33.3 µM in test [6]. In addition, the TGI came to 0.887 µM in test [7], 30.9 µM in [8], 31.4 µM in test [9] and 28.3 µM in test [10].

For the compound `Cc1c(C#N)c2nnn(-c3ccc([N+](=O)[O-])cc3)c(=O)n2c1-c1ccccc1`, the TGI turned out to be 26.5 µM in [1]; 40.1 µM in [2]; 31.2 µM in [3]; 24.4 µM in test [4]; 19.6 µM in [5]; 22 µM in [6]. Besides, the TGI in test [7] was greater than 100 µM; in [8] it was 27.5 µM; in [9], 31.3 µM; in test [10] it was 25 µM.

As to `COc1cc(CCNC2=CC(=O)c3cccnc3C2=O)ccc1O`, the TGI amounted to 2.65 µM in test [1]; 2.99 µM in [2]; 4.07 µM in test [3]; 2.58 µM in [4]; 1.3 µM in [5]; 1.41 µM in [6]. The TGI in [7] is 25.9 µM; in test [8], 3.87 µM; in [9], 0.308 µM; in test [10] it was 2.98 µM.

Turning to `NNC(=O)Cc1cccnc1`, the TGI in test [1], in test [2], in test [3], in test [4], in [5] and in test [6] was greater than 100 µM in each case. Moreover, the TGI in test [7], in test [8], in test [9] and in test [10] was greater than 100 µM in each case.

Turning to `CCOC(O)C(F)(F)F` (configuration not stated), the TGI in [1], in test [3], in test [4], in test [5], in test [6] and in test [7] was greater than 100 µM throughout. Further, the TGI in test [9] and in [10] was greater than 100 µM in each case.

Consider `O=C(CCCC1Cc2ccccc2C1=O)c1ccccc1` (configuration not stated), for which the TGI in test [1] is greater than 100 µM; in test [2], greater than 100 µM; in test [3] it was greater than 100 µM; in [4], greater than 100 µM; in test [5], 56.3 µM; in test [6], greater than 100 µM. Besides, the TGI in [7], in test [8], in test [9] and in test [10] was greater than 100 µM each time.

As for `NC(Cc1ccccc1)=NCC(=O)O`, the TGI in test [1], in test [2], in test [3], in test [4], in test [5] and in [6] was greater than 100 µM in each case. Also, the TGI in [7], in [8], in [9] and in test [10] was greater than 100 µM each time.

For `OCCN1CN(c2nc(N3CN(CCO)C3)nc(N3CN(CCO)C3)n2)C1`, the TGI in [1] was determined as 36.1 µM; in [2], 60.2 µM; in [3], 44.8 µM; in [4] it was 46.7 µM; in test [5] it was 46.9 µM; in test [6], 33.5 µM. Besides, the TGI was determined as 50.6 µM in test [7], 85.6 µM in test [8], 32.3 µM in [9] and 34.3 µM in test [10].

Regarding `C=C(C)[C@@H]1CC[C@]2(CO)CC[C@]3(C)[C@H](CC[C@@H]4[C@@]5(C)CC[C@H](O)C(C)(C)[C@@H]5CC[C@]43C)[C@@H]12`, the TGI in [1] was greater than 100 µM; in [2], greater than 100 µM; in test [3] it was 25.9 µM; in test [4] it was greater than 100 µM; in test [5] it was 45.5 µM; in test [6] it was 28.4 µM. In addition, the TGI in test [7], in test [9] and in [10] was greater than 100 µM throughout.

Turning to `N#Cc1ccc(OC(=O)c2ccc(N=C(N)N)cc2)cc1`, the TGI in test [1], in test [2], in test [3], in test [4], in [5] and in [6] was greater than 100 µM in each case. For the same compound, the TGI in [7] is 54.8 µM; in test [8] it was greater than 100 µM; in [9] it was greater than 100 µM; in test [10], greater than 100 µM.

Turning to `Cc1c(C)c2c(c(N)c1C#N)C(=O)N(OS(=O)(=O)c1ccccc1)C2=O`, the TGI in test [1] is greater than 100 µM; in [2], greater than 100 µM; in test [3], 30.7 µM; in test [4], 46 µM; in test [5], greater than 100 µM; in test [6], 55.1 µM. The TGI is greater than 100 µM in [7], 41.3 µM in test [8], 80.8 µM in test [9] and 41.6 µM in [10].
